One block for each molecule: values may come before it.
Assays:
[1] = cited from earlier work
CFTR = target: T1, CFTR (Homo sapiens, UniProt P13569); assay: Ussing chamber apical CFTR activity in NHBE cells; format: cell-based; settings: FIG. 12
T1 construct: CFTR is located at the apical side (mucosal) of the airway epithelium; endogenous in cells; host or cells: primary NHBE cells, re-differentiated 21 days at the air-liquid interface
From the text: Ussing chamber electrophysiology was used to confirm re-differentiation and polarization as per: Unwalla et al., Am. J. Respir. Cell. Mol. Biol. 2015, 52 (1), 65-74; and Chinnapaiyan et al., Sci Rep. 2018, 8(1), 7984. CFTR is located at the apical side (mucosal) of the airway epithelium. Briefly, NHBE cultures were re-differentiated at the air-liquid interface. Following re-differentiation for 21 days, the snap wells were removed from supports and mounted in Ussing chambers. The short circuit current was measured and allowed to stabilize followed by addition of amiloride (10 μM) added apically to eliminate epithelial sodium channel (ENaC) influences. CFTR activation was affected by addition of albuterol (10 μM) and change in short circuit current (ΔISC) was determined. CFTR specificity was confirmed by addition of CFTR inhibitor CFTRinh172 (20 μM) and the decrease in ΔISC was recorded.

T1 sequence (P13569 whole entry): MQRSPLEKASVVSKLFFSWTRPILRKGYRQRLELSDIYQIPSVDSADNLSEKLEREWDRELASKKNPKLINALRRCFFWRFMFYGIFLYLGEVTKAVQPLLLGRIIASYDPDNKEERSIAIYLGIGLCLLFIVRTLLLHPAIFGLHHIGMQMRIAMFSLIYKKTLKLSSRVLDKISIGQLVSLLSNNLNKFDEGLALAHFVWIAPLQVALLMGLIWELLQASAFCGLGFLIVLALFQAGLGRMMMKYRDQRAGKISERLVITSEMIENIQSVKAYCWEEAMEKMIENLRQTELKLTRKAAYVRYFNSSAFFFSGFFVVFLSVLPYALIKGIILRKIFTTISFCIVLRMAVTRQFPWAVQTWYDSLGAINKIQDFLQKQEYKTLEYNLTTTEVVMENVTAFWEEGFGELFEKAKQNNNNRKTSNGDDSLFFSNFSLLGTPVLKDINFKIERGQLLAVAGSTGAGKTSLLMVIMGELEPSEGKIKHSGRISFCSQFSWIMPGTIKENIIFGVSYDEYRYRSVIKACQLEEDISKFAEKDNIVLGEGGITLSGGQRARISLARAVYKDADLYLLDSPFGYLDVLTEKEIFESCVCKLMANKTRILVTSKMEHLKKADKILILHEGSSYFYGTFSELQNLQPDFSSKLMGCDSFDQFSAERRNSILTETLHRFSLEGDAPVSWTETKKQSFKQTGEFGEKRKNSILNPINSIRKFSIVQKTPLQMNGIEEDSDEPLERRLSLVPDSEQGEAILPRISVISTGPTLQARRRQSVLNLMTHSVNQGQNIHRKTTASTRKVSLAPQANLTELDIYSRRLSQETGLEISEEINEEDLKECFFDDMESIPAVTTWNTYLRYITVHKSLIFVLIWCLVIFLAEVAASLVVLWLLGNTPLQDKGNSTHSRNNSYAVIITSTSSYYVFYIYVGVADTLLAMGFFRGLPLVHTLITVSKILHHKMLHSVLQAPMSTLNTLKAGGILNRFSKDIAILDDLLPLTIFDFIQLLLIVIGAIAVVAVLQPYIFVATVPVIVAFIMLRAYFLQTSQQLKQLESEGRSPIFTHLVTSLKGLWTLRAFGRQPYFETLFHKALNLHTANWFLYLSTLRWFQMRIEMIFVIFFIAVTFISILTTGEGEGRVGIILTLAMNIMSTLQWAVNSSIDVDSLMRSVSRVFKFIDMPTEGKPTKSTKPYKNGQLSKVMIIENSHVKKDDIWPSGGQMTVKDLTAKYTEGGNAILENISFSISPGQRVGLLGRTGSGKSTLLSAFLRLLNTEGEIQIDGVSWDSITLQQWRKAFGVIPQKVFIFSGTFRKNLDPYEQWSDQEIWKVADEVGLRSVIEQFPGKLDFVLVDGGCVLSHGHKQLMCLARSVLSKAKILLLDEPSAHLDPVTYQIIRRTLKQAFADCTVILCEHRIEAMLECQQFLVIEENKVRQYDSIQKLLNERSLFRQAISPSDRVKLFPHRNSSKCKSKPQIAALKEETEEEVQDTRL

SMILES: N=C(N)N [Guanidine]
- pKa value of protonated counterpart [1]: 12.48

- short circuit current after CFTR inhibitor (CFTR; 20 μM after albuterol): decreased current
SMILES: O=C(O)c1ccc(/C=C2\SC(=S)N(c3cccc(C(F)(F)F)c3)C2=O)cc1 [CFIRinh172]

SMILES: CC(C)(C)NCC(O)c1ccc(O)c(CO)c1 (stereo not drawn) [albuterol]
- short circuit current on CFTR activation (CFTR; albuterol 10 μM after amiloride): sharp current increase occurs immediately

From patent publication US10688189B1, “Modulated guanidine-containing polymers or nanoparticles” (THE FLORIDA INTERNATIONAL BOARD OF TRUSTEES, priority 2017, dated 2020)
